Source: paper PMC6858373 (Scientific Reports, 2019)
Read-outs that look alike come from different tables or passages of the source.

Columns and labels:
[1] = molecular target: T1, FGF14:Nav1.6 C-tail complex (Homo sapiens, UniProt Q92915+Q9UQD0); test: Split-luciferase complementation assay (LCA) in Clone V double stable HEK293 cells; assay type: cell-based
T1 construct: polymerase chain reaction (PCR) amplification of the FGF14 open reading frame (nt 1–855); C-terminal fragment of Nav1.6 (amino acids 1763–1976) fused with CD4ΔC-tail (amino acids 1–395); expressed in transfected cells

[2] = molecular target: full-length P. pyralis luciferase (Photinus pyralis, UniProt P08659, K549A/L550V/N119G/N50D/S548I); assay type: cell-based
[3] = CC_NCI screening, LCA luminescence, biological replicate Set 1, normalized to on-plate 0.3% DMSO controls (n=16 per plate)
[4] = CC_NCI screening, LCA luminescence, biological replicate Set 2, normalized to on-plate 0.3% DMSO controls (n=16 per plate)
[5] = CC_NCI screening, LCA, biological replicate Set 1, normalized to on-plate 0.3% DMSO controls
[6] = CC_NCI screening, LCA, biological replicate Set 2, normalized to on-plate 0.3% DMSO controls
[7] = CC_NCI screening, average of Set 1 and Set 2, normalized to 0.3% DMSO controls
[8] = CC_NCI screening, full-length luciferase counter-screen luminescence, normalized to on-plate 0.3% DMSO controls
[9] = CC_NCI screening, full-length luciferase counter-screen, normalized to on-plate 0.3% DMSO controls
[10] = CC_NCI screening, biological replicate Set 1, normalized to on-plate 0.3% DMSO controls
[11] = CC_NCI screening, biological replicate Set 1, normalized to on-plate 0.3% DMSO controls (n=16 per plate)
[12] = CC_NCI screening, biological replicate Set 2, normalized to on-plate 0.3% DMSO controls
[13] = CC_NCI screening, biological replicate Set 2, normalized to on-plate 0.3% DMSO controls (n=16 per plate)
[14] = average of Set 1 and Set 2, normalized to 0.3% DMSO controls
[15] = CC_NCI screening, normalized to on-plate 0.3% DMSO controls

full-length P. pyralis luciferase, sequence (P08659 whole entry N50D/N119G/S548I/K549A/L550V, looked up): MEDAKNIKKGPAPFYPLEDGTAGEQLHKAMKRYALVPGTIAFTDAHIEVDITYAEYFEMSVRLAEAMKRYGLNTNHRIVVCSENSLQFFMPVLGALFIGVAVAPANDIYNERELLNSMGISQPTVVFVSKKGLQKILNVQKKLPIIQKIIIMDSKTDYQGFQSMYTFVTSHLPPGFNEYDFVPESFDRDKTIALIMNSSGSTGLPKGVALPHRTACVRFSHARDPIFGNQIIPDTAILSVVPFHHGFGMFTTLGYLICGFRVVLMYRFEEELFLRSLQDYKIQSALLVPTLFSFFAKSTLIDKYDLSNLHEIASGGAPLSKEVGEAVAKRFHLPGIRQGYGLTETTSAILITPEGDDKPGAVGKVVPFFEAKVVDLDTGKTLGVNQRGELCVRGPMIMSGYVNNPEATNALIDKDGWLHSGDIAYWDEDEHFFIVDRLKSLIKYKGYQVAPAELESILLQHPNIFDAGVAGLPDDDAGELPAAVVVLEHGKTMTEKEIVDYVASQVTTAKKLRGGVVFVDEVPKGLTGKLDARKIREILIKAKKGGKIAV
T1 sequence (Q92915 1-252 isoform Q92915-2): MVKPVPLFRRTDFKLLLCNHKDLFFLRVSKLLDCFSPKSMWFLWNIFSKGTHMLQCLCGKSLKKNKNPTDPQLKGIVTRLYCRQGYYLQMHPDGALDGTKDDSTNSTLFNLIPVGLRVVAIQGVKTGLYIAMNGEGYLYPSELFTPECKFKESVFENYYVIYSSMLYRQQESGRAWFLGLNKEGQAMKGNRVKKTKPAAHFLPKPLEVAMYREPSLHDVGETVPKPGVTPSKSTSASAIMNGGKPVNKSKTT
T1 sequence (Q9UQD0 1763-1976 limits assumed): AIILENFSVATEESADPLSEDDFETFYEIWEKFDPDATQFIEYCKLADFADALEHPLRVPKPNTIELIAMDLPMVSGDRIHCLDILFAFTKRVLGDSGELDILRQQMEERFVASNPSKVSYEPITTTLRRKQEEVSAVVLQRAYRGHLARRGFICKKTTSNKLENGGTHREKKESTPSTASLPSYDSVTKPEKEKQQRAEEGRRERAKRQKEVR

Structure (SMILES) | Split Luciferase Assay % Lum Set 1 [1, 3] [%] | Split Luciferase Assay %Lum Set 2 [1, 4] [%] | Split Luciferase Assay Z-score Set 1 [1, 5] | Split Luciferase Assay Z-score Set 2 [1, 6] | Split Luciferase Assay %Lum Avg [1, 7] [%] | Luciferase Assay % Lum [2, 8] [%] | Luciferase Assay Z-score [2, 9] | also measured
COC(=O)c1ccc2c(c1)NC(=O)/C2=C(\Nc1ccc(N(C)C(=O)CN2CCN(C)CC2)cc1)c1ccccc1 [BIBF-1120] | 119.91 | 123.80 | 1.61 | 1.94 | 121.85 | 102.06 | 0.26 | Toxicity Assay % Fluor (Clone V cells; human, 16 h, 30 µM): 89.46%; Toxicity Assay Z-score (Clone V cells; human, 16 h, 30 µM): -1.47
N#Cc1c(O)c2c(-c3ccc(-c4ccccc4O)cc3)csc2[nH]c1=O [Compound A-769662] | – | – | – | – | – | – | – | Toxicity Assay % Fluor (CTB cell viability fluorescence) (Clone V cells): 107.48%; Toxicity Assay Z-score (CTB cell viability) (Clone V cells): 1.05; Split Luciferase Assay Z-score Set 1 [1, 10]: 1.52; Split Luciferase Assay % Lum Set 1 [1, 11]: 118.82%; Split Luciferase Assay Z-score Set 2 [1, 12]: 1.01; Split Luciferase Assay %Lum Set 2 [1, 13]: 112.35%; Split Luciferase Assay %Lum Avg [1, 14]: 115.59%; Luciferase Assay % Lum (full-length luciferase counter-screen) [2, 15]: 79.85%; Luciferase Assay Z-score (full-length luciferase counter-screen) [2, 15]: -2.58
COC1=C2C[C@@H](C)C[C@H](OC)[C@H](O)[C@@H](C)/C=C(\C)[C@H](OC(N)=O)[C@@H](OC)/C=C\C=C(/C)C(=O)NC(=CC1=O)C2=O [GELDENAMYCIN] | 70.99 | 86.35 | -2.34 | -1.11 | 78.67 | 102.35 | 0.30 | Toxicity Assay % Fluor (Clone V cells): 94.70%; Toxicity Assay Z-score (Clone V cells): -0.74
COc1ccc2c(c1)CC[C@@H]1[C@@H]2CC[C@]2(C)[C@@H](NCCCCCCN3C(=O)C=CC3=O)CC[C@@H]12 [U 73122] | 128.60 | 129.00 | 2.31 | 2.36 | 128.80 | 109.98 | 1.28 | Toxicity Assay % Fluor (Clone V cells): 102.60%; Toxicity Assay Z-score (Clone V cells): 0.36
Cn1cc(C2=C(c3cn(C4CCN(Cc5ccccn5)CC4)c4ccccc34)C(=O)NC2=O)c2ccccc21 [ENZASTAURIN] | 84.03 | 96.75 | -1.29 | -0.26 | 90.39 | 90.70 | -1.19 | Toxicity Assay % Fluor (Clone V cells; human, 16 h, 30 µM): 95.12%; Toxicity Assay Z-score (Clone V cells; human, 16 h, 30 µM): -0.68
CCOC(=O)C1=C(N)Oc2ccc(Br)cc2C1C(C#N)C(=O)OCC (stereo not drawn) [HA14-1] | 80.77 | 97.79 | -1.55 | -0.18 | 89.28 | 99.78 | -0.03 | Toxicity Assay % Fluor (Clone V cells): 102.67%; Toxicity Assay Z-score (Clone V cells): 0.37
CC[C@H](CO)Nc1nc(NCc2ccccc2)c2ncn(C(C)C)c2n1 [Roscovitine] | – | – | – | – | – | – | – | Toxicity Assay % Fluor (Clone V cells; human): 99.28%; Toxicity Assay Z-score (Clone V cells; human): -0.10; Split Luciferase Assay % Lum Set 1 [1]: 32.94%; Split Luciferase Assay %Lum Avg [1]: 39.88%; Split Luciferase Assay %Lum Set 2 [1]: 46.81%; Split Luciferase Assay Z-score Set 1 [1]: -5.42; Split Luciferase Assay Z-score Set 2 [1]: -4.33; Luciferase Assay % Lum [2]: 97.39%; Luciferase Assay Z-score [2]: -0.33
CC(C)C[C@H](NC(=O)[C@H](Cc1ccccc1)NC(=O)c1cnccn1)B(O)O [Bortezomib] | 89.47 | 117.56 | -0.85 | 1.43 | 103.51 | 83.42 | -2.12 | Toxicity Assay % Fluor (Clone V cells): 93.30%; Toxicity Assay Z-score (Clone V cells): -0.94
COc1nc(N)nc2c1ncn2[C@@H]1O[C@H](CO)[C@@H](O)[C@@H]1O [Nelarabine] | 129.69 | 114.43 | 2.40 | 1.17 | 122.06 | – | – | Toxicity Assay % Fluor (Clone V cells; human, 16 h, 30 µM): 90.75%; Toxicity Assay Z-score (Clone V cells; human, 16 h, 30 µM): -1.29; Luciferase Assay % Lum [2]: 93.91%; Luciferase Assay Z-score [2]: -0.78
NC(=O)c1ccc2[nH]ccc2c1 [SD 169] | – | – | – | – | – | – | – | Toxicity Assay % Fluor (CTB cell viability fluorescence) (Clone V cells): 104.03%; Toxicity Assay Z-score (CTB cell viability) (Clone V cells): 0.56; Split Luciferase Assay Z-score Set 1 [1, 10]: 2.14; Split Luciferase Assay % Lum Set 1 [1, 11]: 126.43%; Split Luciferase Assay Z-score Set 2 [1, 12]: 1.34; Split Luciferase Assay %Lum Set 2 [1, 13]: 116.51%; Split Luciferase Assay %Lum Avg [1, 14]: 121.47%; Luciferase Assay % Lum (full-length luciferase counter-screen) [2, 15]: 109.31%; Luciferase Assay Z-score (full-length luciferase counter-screen) [2, 15]: 1.19
NC(=O)c1ccc2nc(-c3ccc(Oc4ccc(Cl)cc4)cc3)[nH]c2c1 [CHK2 INHIBITOR II] | – | – | – | – | – | – | – | Toxicity Assay % Fluor (CTB cell viability fluorescence) (Clone V cells): 112.91%; Toxicity Assay Z-score (CTB cell viability) (Clone V cells): 1.80
CNC(=O)c1cc(Oc2ccc(NC(=O)Nc3ccc(Cl)c(C(F)(F)F)c3)cc2)ccn1 [Sorafenib, reference compound] | 5.76 | 15.60 | -7.62 | -6.87 | 10.68 | 88.55 | -1.47 | Z-score (LCA primary screening) ([1]; 30 µM, 384-well, average of primary screening (n = 2), vs on-plate 0.3% DMSO): −7.62; Split Luciferase Assay % Lum Set 1 ([1]; CC_NCI screening, LCA luminescence, biological replicate Set 1, normalized to on-plate 0.3% DMSO controls (n=16 per plate), listed as SORAFENIB): 4.67%; Split Luciferase Assay %Lum Set 2 ([1]; CC_NCI screening, LCA luminescence, biological replicate Set 2, normalized to on-plate 0.3% DMSO controls (n=16 per plate), listed as SORAFENIB): 7.28%; Split Luciferase Assay Z-score Set 1 ([1]; CC_NCI screening, LCA, biological replicate Set 1, normalized to on-plate 0.3% DMSO controls, listed as SORAFENIB): -7.70; Split Luciferase Assay Z-score Set 2 ([1]; CC_NCI screening, LCA, biological replicate Set 2, normalized to on-plate 0.3% DMSO controls, listed as SORAFENIB): -7.54; Split Luciferase Assay %Lum Avg ([1]; CC_NCI screening, average of Set 1 and Set 2, normalized to 0.3% DMSO controls, listed as SORAFENIB): 5.98%; IMin (% Luminescence) ([1]; antagonists, Clone V cells, 384-well, normalized to DMSO): 5.98 % Luminescence; IC50 ([1]; estimated, 8-point dose response 0.25-30 µM, n = 4 per concentration, library compounds, read-out: IC50): 3.98 µM; Luciferase Assay % Lum ([2]; CC_NCI screening, full-length luciferase counter-screen luminescence, normalized to on-plate 0.3% DMSO controls, listed as SORAFENIB): 91.34%; Luciferase Assay Z-score ([2]; CC_NCI screening, full-length luciferase counter-screen, normalized to on-plate 0.3% DMSO controls, listed as SORAFENIB): -1.11
COc1cc2c(N3CCN(C(=O)Nc4ccc(OC(C)C)cc4)CC3)ncnc2cc1OCCCN1CCCCC1 [TANDUTINIB] | 92.73 | 92.59 | -0.59 | -0.60 | 92.66 | 88.98 | -1.41 | –
N.N.[Cl][Pt][Cl] [Cisplatin] | 89.47 | 98.83 | -0.85 | -0.10 | 94.15 | 99.37 | -0.08 | –
O=C(NOC[C@H](O)CO)c1ccc(F)c(F)c1Nc1ccc(I)cc1F [PD 0325901] | – | – | – | – | – | – | – | Toxicity Assay % Fluor (Clone V cells; human, 16 h, 30 µM): 83.92%; Toxicity Assay Z-score (Clone V cells; human, 16 h, 30 µM): -2.25
CCN(CC)CCNC(=O)c1c(C)[nH]c(/C=C2\C(=O)Nc3ccc(F)cc32)c1C [Sunitinib] | 68.81 | 72.82 | -2.52 | -2.21 | 70.82 | 95.10 | -0.63 | –
